Assay results published in paper PMC10552532, “Evaluation of anti-cancer effects of carnosine and melittin-loaded niosomes in MCF-7 and MDA-MB-231 breast cancer cells” (Frontiers in Pharmacology, 2023).
pIC50: −log10 of the molar value.

Experiments:
MDA-MB-231 cells [1] = assay: Lipid peroxidation (MDA) detection; format: cell-based; conditions: MDA-MB-231, 48 h at IC50 concentration, vs untreated cancer cells
Protocol: (§1) For this assay, the cells (2 × 10^6 cells/mL) were seeded onto 96-well culture plates to determine lipid peroxidation levels. Following a 48-h incubation with Car-NIO (48.83, 51.4 μM), Mel-NIO (21.23, 43.65 μM), and olaparib (23.31, 32.55 μM), cells were collected and washed twice with phosphate-buffered saline. The cells were harvested with a sonicator probe (VCX-130 W, Newtown, United States) on ice, and then disrupted by ultra-sonication for 5 s. Following the manufacturer’s guidelines for best results, the malondialdehyde (MDA) was detected in the cell extract using the MDA test kit (catalog number: ab287797, Abcam, United Kingdom). The microplate reader was used to determine the MDA concentration at a wavelength of 532 nm (Tecan, Mannedorf, Switzerland) ([Gérard-Monnier et al., 1998]).

MCF-7 cells [2] = assay: Lipid peroxidation (MDA) detection; format: cell-based; conditions: MCF-7, 48 h at IC50 concentration, vs untreated cancer cells
Protocol: as §1

MDA-MB-231 cells [3] = assay: MTT cytotoxicity assay; format: cell-based; conditions: Homo sapiens, MDA-MB-231, 48 h, read-out: IC50 (viability)
Protocol: (§2) The 3-(4,5-dimethylthiazol-2-yl)-2,5-diphenyl-2H-tetrazolium bromide (MTT) assay is a colorimetric method that uses the transformation of yellow MTT into purple formazan. The following procedures were carried out in a clean environment using MTT Assay Kit (Cell Proliferation) (catalog number: ab211091, Abcam, United Kingdom), with the use of a Laminar flow cabinet meeting biosafety standard II (Baker, SG403INT, Sanford, ME, United States), l0^4 cells/well were subjected to varying doses of Car-NIO (5, 10, 25, 50, and 100 μM) ([Tehrani et al., 2018]) and Mel-NIO (5, 10, 25, 50, and 100 μM) ([Yaacoub et al., 2021]) and olaparib (5, 10, 25, 50, and 100 μM) ([Ashmawy et al., 2017]). After 48 h, we added 2.5 μg/mL of MTT to each well and incubated the plates at 37°C for another 4 h. After the formation of formazan crystals, 10% sodium dodecyl sulfate (200 μL/well) was used to dissolve the crystals. We measured the absorbance at 595 nm, and a positive control that causes 100% mortality under the same conditions was utilized. Using the following formula, the change in viability was given as a percentage was calculated: Cytotoxicity %=Extract reading/Negative control reading x100
(§3) Viability % = 100- Cytotoxicity%, The impact of each treatment is measured by its IC50 (the concentration at which 50% of the viability is inhibited).

MCF-7 cells [4] = assay: MTT cytotoxicity assay; format: cell-based; conditions: Homo sapiens, MCF7, MCF-7, 48 h, read-out: IC50 (viability)
Protocol: as §2, §3

MDA-MB-231 cells [5] = assay: Cell cycle distribution by flow cytometry (propidium iodide); format: cell-based; conditions: MDA-MB-231, 48 h at IC50 concentration
Protocol: (§4) Overnight, the cells were cultured in 100-mm plates at a density of 2 × 10^6 cells/mL per well using fresh culture media. Treatment with Car-NIO (48.83, 51.4 μM), Mel-NIO (21.23, 43.65 μM), and olaparib (23.31, 32.55 μM) for 48 h began the next day. After harvesting, the cells were fixed in 70% ethanol at […] for 12 h. After that, the cells were exposed to RNase (10 mg/mL) and propidium iodide (50 μg/mL) for 30 min. The cell cycle distribution was analyzed using flow cytometry, and the data were analyzed using FlowJo (TreeStar, Ashland, OR, United States) ([Mei et al., 2019]).

MCF-7 cells [6] = assay: as above; format: cell-based; conditions: MCF-7, 48 h at IC50 concentration
Protocol: as §4

[7] = tested on: human epidermal growth factor receptor 2-negative, metastatic breast cancer and a hereditary BRCA mutation; design: method as in Tutt et al., 2021; conditions: olaparib monotherapy rather than the standard treatment; ref Tutt et al., 2021; cited from earlier work
MDA-MB-231 cells [8] = assay: Quantitative RT-PCR of marker genes; format: cell-based; conditions: MDA-MB-231, vs untreated cancer cells
Description: (§5) The cells’ total RNA was extracted with the help of the RNA Mini Kit from Ambion by Life Technologies by Thermo Scientific (catalog number: 12183018A). To ensure the integrity of the RNA samples, we used a NanoDrop® ND-1000 Spectrophotometer from NanoDrop Technologies in Wilmington, Delaware, United States A High Capacity cDNA Reverse Transcription Kit (catalog number: 4374966) from Thermo Scientific was then used to amplify the cDNA. The Maxima SYBR Green qPCR Master Mix (2X) kit from Thermo Scientific, (catalog number: K0251), was used for real-time PCR amplification ([Shehata et al., 2018]). The housekeeping GADPH (for mRNA) or U6 (for miRNA) were used as a standard. The 2^−∆∆ct formula was used to calculate the levels of target gene expression ([Livak and Schmittgen, 2001]). Table 1 contains the sequences of the desired gene primers.

MCF-7 cells [9] = assay: Quantitative RT-PCR of marker genes; format: cell-based; conditions: MCF-7, vs untreated cancer cells
Description: as §5

[10] = In vitro drug release from dialysis bag; format: physicochemical; conditions: first 6 h, pH 5.4, 37°C
Protocol: A dialysis bag (MWCO = 12 kDa) was used to compare 2 mL of free drugs, Car-NIO and Mel-NIO for drug release (in vitro). This bag was placed in a phosphate buffered saline (PBS) solution (50 mL, 1X, pH = 5.4) with slow stirring (50 rpm) at 37°C. At certain intervals, a portion of the PBS solution was removed and replaced with a new aliquot.

O=C(c1cc(Cc2n[nH]c(=O)c3ccccc23)ccc1F)N1CCN(C(=O)C2CC2)CC1 [olaparib]
MDA level (MDA-MB-231 cells [1]): significant downregulation | MDA level (MCF-7 cells [2]): significant downregulation | pIC50 (MDA-MB-231 cells [3]): 4.49 | pIC50 (MCF-7 cells [4]): 4.63 | cells in G0/1 phase (MDA-MB-231 cells [5]): 83.0% | cells in S phase (MDA-MB-231 cells [5]): 3.2% | cells in G0/1 phase (MCF-7 cells [6]): 63.2% | cells in S phase (MCF-7 cells [6]): 8.6% | extension of median progression-free survival [7]: 2.8 months | expression level of miRNA-183 (MDA-MB-231 cells [8]; U6 as standard): significant downregulation | expression level of Bcl2 (MDA-MB-231 cells [8]; relative to GADPH): significant downregulation | expression level of FOXO3 (MDA-MB-231 cells [8]; relative to GADPH): significantly upregulated | expression level of PARP 1 (MDA-MB-231 cells [8]; relative to GADPH): significant downregulation | expression level of PDCD4 (MDA-MB-231 cells [8]; relative to GADPH): significantly upregulated | mRNA expression of Bax (MDA-MB-231 cells [8]; relative to GADPH): significant upregulation | mRNA expression of P53 (MDA-MB-231 cells [8]; relative to GADPH): significant upregulation | mRNA expression of caspase-3 (MDA-MB-231 cells [8]; relative to GADPH): significant upregulation | mRNA expression of caspase-9 (MDA-MB-231 cells [8]; relative to GADPH): significant upregulation | expression level of miRNA-183 (MCF-7 cells [9]; U6 as standard): significant downregulation | expression level of Bcl2 (MCF-7 cells [9]; relative to GADPH): significant downregulation | expression level of FOXO3 (MCF-7 cells [9]; relative to GADPH): significantly upregulated | expression level of PARP 1 (MCF-7 cells [9]; relative to GADPH): significant downregulation | expression level of PDCD4 (MCF-7 cells [9]; relative to GADPH): significantly upregulated | mRNA expression of Bax (MCF-7 cells [9]; relative to GADPH): significant upregulation | mRNA expression of P53 (MCF-7 cells [9]; relative to GADPH): significant upregulation | mRNA expression of caspase-3 (MCF-7 cells [9]; relative to GADPH): significant upregulation | mRNA expression of caspase-9 (MCF-7 cells [9]; relative to GADPH): significant upregulation

NCCC(=O)N[C@@H](Cc1cnc[nH]1)C(=O)O [carnosine, β-alanyl-L-histidine]
drug release [10]: 43%

melittin
drug release [10]: 72.3%
